Laboratory results taken from patent US6518041B1, “Hormone response element that binds an androgen and progesterone receptor” (Schering Aktiengesellschaft, priority 1998, dated 2003).

Legend:
[1] = target: T1, androgen receptor (Homo sapiens, UniProt P10275); assay: ARE17 luciferase reporter test system in PC-3/AR cells; type: cell-based
T1 construct: expressed in transfected cells; host or cells: PC-3 cells stably transformed with an androgen receptor expression vector (PC-3/AR)
T1 sequence (P10275 1-920): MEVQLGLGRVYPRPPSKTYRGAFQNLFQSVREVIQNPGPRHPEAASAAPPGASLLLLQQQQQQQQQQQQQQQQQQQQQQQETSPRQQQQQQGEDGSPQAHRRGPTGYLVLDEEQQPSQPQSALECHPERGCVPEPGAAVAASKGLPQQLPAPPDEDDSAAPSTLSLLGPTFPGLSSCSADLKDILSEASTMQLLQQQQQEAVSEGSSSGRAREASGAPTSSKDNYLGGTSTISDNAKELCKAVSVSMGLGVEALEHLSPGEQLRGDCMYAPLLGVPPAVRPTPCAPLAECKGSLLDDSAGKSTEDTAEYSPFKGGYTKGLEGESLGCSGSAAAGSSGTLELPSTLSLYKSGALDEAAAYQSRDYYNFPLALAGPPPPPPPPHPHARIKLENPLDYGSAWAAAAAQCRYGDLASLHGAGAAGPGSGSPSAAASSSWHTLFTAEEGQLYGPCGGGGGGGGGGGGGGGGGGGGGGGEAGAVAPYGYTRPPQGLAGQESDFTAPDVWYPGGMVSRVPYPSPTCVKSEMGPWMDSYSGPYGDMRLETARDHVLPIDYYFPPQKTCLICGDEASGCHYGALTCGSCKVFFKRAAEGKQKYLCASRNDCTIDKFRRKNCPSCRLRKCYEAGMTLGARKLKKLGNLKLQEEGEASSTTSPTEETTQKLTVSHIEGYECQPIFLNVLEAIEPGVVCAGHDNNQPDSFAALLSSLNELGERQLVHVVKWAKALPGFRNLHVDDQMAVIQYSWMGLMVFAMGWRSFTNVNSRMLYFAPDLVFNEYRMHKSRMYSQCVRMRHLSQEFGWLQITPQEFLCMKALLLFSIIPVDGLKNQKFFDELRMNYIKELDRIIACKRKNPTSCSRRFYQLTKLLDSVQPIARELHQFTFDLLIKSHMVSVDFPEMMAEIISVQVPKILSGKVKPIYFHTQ
Description: Preferred is the use of the luciferase reporter gene and of PC-3 cells that have been transformed in advance in a stable manner with an expression vector for the androgen receptor (PC-3/AR cells) or in a transient parallel manner. In addition, the use of the TK minimal promoter is preferred. […] A progestin is a synthetic progesterone analog.
(§1) Test systems were compared that contained either an HRE according to the invention that corresponds to Seq. ID No. 1 (ARE17) or the consensus-HRE with the sequence (SEQ ID NO: 5) 5′-[…]-3′ (ARE). All other components were respectively the same. Copies of the ARE17 were introduced upstream from the TK minimal promoter and the luciferase gene in the pGL3-basic vector (FIG. 1). PC-3/AR cells, which already express the androgen receptor in a stable manner, were saturated in RPMI1640/10% cFS/L-glutamine for 18-24 hours and then transformed for five hours with 100 ng of reporter plasmid and the Fu-gene transfection reagent (Boehringer Mannheim). Then, the medium was replaced by RPM1640/5% cFCS/L-glutamine, and the activity of the reporter gene measured 42 hours later.
(§2) Four copies of the elements were introduced upstream from the TK minimal promoter and the luciferase gene in the pGL3-basic vector (FIG. 1) and transformed in the PC-3/AR-cells, which already express the androgen receptor in a stable manner, as described above. The stimulation was carried out with the synthetic androgen R1881 (10^−9M or 10^−7M final concentration).

[2] = target: T1, androgen receptor; assay: consensus-HRE (ARE) luciferase reporter test system in PC-3/AR cells; type: cell-based
Description: as §1, §2

C[C@]1(O)CC[C@H]2[C@@H]3CCC4=CC(=O)CCC4=C3C=C[C@@]21C [R1881]
induction of the luciferase activity ([1]; 2 copies of ARE17, TK minimal promoter, PC-3/AR cells, androgen receptor expression vector): 10.5 fold | induction of the luciferase activity compared between ARE17, consensus-HRE and IDR17 ([1]; 4 copies of ARE17, R1881 10^-9 M or 10^-7 M): strongest induction | increase of the luciferase activity ([1]; 4 copies of ARE17, TK minimal promoter, PC-3/AR cells): 46 fold | difference in stimulation between the two R1881 concentrations ([1]; 4 copies, 10^-9 M versus 10^-7 M final concentration): No decisive difference | induction of the luciferase activity (in words) ([1]; ARE17, R1881 10^-7 M, measured 42 hours later): very strong induction | induction of the luciferase activity compared between ARE17, consensus-HRE and IDR17 ([2]; 4 copies of consensus-HRE, R1881 10^-9 M or 10^-7 M): weakest stimulation

CC(C)(O)C(=O)Nc1ccc([N+](=O)[O-])c(C(F)(F)F)c1 [hydroxyflutamide]
stimulation of ARE17 in the absence of an androgen ([1]; 4 copies, no androgen): stimulated neither | stimulation of the consensus-HRE in the absence of an androgen ([2]; 4 copies, no androgen): stimulated neither
